# Experiments:
# [1] = test system: Human immunodeficiency virus 1; assay: Antiviral activity against HIV-1 IIIB infected in human C8166 cells assessed as inhibition of reverse transcriptase mediated cytopathic effect incubated for 3 days by MTT assay; assay type: functional, organism-based; conditions: Human immunodeficiency virus 1, IIIB, C8166, 72 h
# [2] = Cytotoxicity against human C8166 cells assessed as reduction in cell viability incubated for 3 days by MTT assay; assay type: toxicity, cell-based; conditions: time 3 day
# [3] = Therapeutic index, ratio of CC50 for cytotoxicity against human C8166 cells to EC50 for antiviral activity against HIV-1 IIIB infected in human C8166 cells; assay type: toxicity, cell-based; conditions: read-out: Ratio CC50/EC50
compound,measurement,setting,value
CC(=O)N1CCc2cc3c(c4c2[C@H]1Cc1ccccc1-4)OCO3,IC50,[1],> 40 µM
OCCc1cc2c(c3c1ccc1ccccc13)OCO2,EC50,[1],0.125 µM
same,CC50 at 72 h,[2],838 µM
same,selectivity ratio,[3],6690
O[C@H]1Cc2cc3c(c4c2c1cc1ccccc14)OCO3,EC50,[1],0.0209 µM
same,CC50 at 72 h,[2],3090 µM
same,selectivity ratio,[3],148000
c1ccc2c(c1)C[C@H]1NCCc3cc4c(c-2c31)OCO4 [ANONAINE],IC50,[1],> 40 µM
Cc1cn([C@H]2C[C@H](N=[N+]=[N-])[C@@H](CO)O2)c(=O)[nH]c1=O [ZIDOVUDINE],EC50,[1],0.0239 µM
same,CC50 at 72 h,[2],3990 µM
same,selectivity ratio,[3],167000
